For 14 compounds, IC50 results are on record in US7803778B2, “Glucose transport inhibitors and methods of use” (Theracos, Inc., priority 2006, dated 2010).

One experiment deals with T1, human SGLT1 (Homo sapiens, UniProt P13866).
T1 construct: Full-length human SGLT1 cDNA on pDream2.1 expression vector; host or cells: COS-7 cells
T1 sequence (P13866 1-664): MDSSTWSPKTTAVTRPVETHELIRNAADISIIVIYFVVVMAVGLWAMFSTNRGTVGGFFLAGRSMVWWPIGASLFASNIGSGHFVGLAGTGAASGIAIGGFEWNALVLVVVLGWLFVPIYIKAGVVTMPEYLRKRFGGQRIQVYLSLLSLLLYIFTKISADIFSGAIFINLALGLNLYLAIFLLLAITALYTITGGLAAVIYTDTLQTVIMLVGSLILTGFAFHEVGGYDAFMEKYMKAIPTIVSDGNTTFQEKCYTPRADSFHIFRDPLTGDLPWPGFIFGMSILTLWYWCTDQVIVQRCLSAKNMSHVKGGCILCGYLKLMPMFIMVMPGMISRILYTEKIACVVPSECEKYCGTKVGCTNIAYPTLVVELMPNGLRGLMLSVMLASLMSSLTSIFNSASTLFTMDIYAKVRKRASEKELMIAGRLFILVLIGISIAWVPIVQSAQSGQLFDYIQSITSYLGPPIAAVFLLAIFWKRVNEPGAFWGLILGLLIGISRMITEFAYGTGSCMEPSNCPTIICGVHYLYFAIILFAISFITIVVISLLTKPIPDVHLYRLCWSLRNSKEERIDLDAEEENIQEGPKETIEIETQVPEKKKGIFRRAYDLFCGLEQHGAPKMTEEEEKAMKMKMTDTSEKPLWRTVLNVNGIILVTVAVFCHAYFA
As to the kind of experiment: Methyl-α-D-[U-14C]glucopyranoside uptake assay, SGLT1. Type of experiment: cell-based. As to conditions: COS-7 cells transfected with human SGLT1; sodium-dependent uptake, 2 h incubation. Here is the method: Full-length human SGLT1 cDNA on pDream2.1 expression vector was obtained from GenScript Corporation and propagated in Escherichia coli strain DH5α using Luria-Bertani (LB) medium containing ampicillin. Plasmid DNA was isolated using the QIAGEN Plasmid Midi Kit (QIAGEN Inc.). […] Transfected cells were stored in DMEM containing 10% dimethyl sulfoxide (DMSO) at −80° C.
(§1) Cells expressing SGLT1 or SGLT2 were seeded on 96-well ScintiPlate scintillating plates (PerkinElmer, Inc.) in DMEM containing 10% FBS (1×10^5 cells per well in 100 μl medium) incubated at 37° C. under 5% CO2 for 48 h prior to the assay. Cells were washed twice with 150 μl of either sodium buffer (137 mM NaCl, 5.4 mM KCl, 2.8 mM CaCl2, 1.2 mM MgCl2, 10 mM tris(hydroxymethyl)aminomethane/N-2-hydroxyethylpiperazine-N′-ethanesulfonic acid [Tris/Hepes], pH 7.2) or sodium-free buffer (137 mM N-methyl-glucamine, 5.4 mM KCl, 2.8 mM CaCl2, 1.2 mM MgCl2, 10 mM Tris/Hepes, pH 7.2). Test compound in 50 μl each of sodium or sodium-free buffer containing 40 μCi/ml methyl-α-D-[U-^14C]glucopyranoside (Amersham Biosciences/GE Healthcare) was added per well of a 96-well plate and incubated at 37° C. with shaking for either 2 h (SGLT1 assay) or 1.5 h (SGLT2 assay). Cells were washed twice with 150 μl of wash buffer (137 mM N-methylglucamine, 10 mM Tris/Hepes, pH 7.2) and methyl-α-D-[U-^14C]glucopyranoside uptake was quantitated using a TopCount scintillation counter (PerkinElmer, Inc.). Sodium-dependent glucopyranoside uptake was measured by subtracting the values obtained with sodium-free buffer from those obtained using sodium buffer (average of triplicate determinations).

The target in another experiment is T2, human SGLT2 (Homo sapiens, UniProt P31639).
T2 construct: A full-length cDNA clone expressing human SGLT2
T2 sequence (P31639 1-672): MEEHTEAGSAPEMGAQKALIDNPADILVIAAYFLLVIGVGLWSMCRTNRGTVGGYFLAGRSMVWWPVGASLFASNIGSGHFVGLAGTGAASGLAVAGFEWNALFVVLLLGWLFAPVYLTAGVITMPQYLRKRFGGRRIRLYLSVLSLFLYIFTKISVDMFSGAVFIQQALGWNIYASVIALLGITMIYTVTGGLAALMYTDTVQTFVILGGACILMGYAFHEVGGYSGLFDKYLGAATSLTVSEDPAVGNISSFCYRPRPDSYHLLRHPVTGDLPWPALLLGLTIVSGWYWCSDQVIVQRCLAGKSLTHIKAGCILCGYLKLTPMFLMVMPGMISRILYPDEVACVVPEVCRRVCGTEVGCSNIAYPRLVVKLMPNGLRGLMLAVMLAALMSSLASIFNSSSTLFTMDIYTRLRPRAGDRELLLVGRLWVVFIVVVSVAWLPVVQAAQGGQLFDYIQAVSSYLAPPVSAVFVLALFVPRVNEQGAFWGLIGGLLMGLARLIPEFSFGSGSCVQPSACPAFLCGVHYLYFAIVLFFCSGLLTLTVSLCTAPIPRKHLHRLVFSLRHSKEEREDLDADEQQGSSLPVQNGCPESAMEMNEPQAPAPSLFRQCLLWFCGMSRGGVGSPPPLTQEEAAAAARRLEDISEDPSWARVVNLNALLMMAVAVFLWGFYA
Nature of the experiment: Methyl-α-D-[U-14C]glucopyranoside uptake assay, SGLT2. In kind it is cell-based. As to conditions: HEK293.ETN cells stably expressing human SGLT2, sodium-dependent uptake, 1.5 h incubation.
Source text: A full-length cDNA clone expressing human SGLT2 (GenScript Corporation) was subcloned into Hind III and Not I sites of pEAK15 expression vector. Clones harboring the cDNA inserts were identified by restriction analysis.
Plasmid containing human SGLT2 was linearized with Nsi I and purified by agarose gel electrophoresis. Using Lipofectamine 2000 Transfection Reagent (Invitrogen Corporation), DNA was transfected into HEK293.ETN cells and cultured in Dulbecco's Modified Eagle Medium (DMEM) containing 10% fetal bovine serum (FBS) at 37° C. under 5% CO2 for 24 h. Transfectants were selected in the same growth medium supplemented with puromycin (Invitrogen Corporation) for two weeks. Puromycin-resistant cells were recovered and seeded on a fresh 96-well plate (single cell per well) and cultured in the presence of puromycin until cells became confluent. Puromycin-resistant clones were evaluated for SGLT2 activity in the methyl-α-D-[U-^14C]glucopyranoside uptake assay described below.
as §1

Where two headings read alike, the source gives them in different places. A value given as a limit tells only on which side of the number the result lay.

As usually defined, the IC50 is the concentration needed to halve the response being measured. Take `CCOc1ccc(Cc2cc3c(cc2Cl)CO[C@]32O[C@H](CO)[C@@H](O)[C@H](O)[C@H]2O)cc1` [Compound H, (1S,3′R,4′S,5′S,6′R)-5-chloro-6-(4-ethoxybenzyl)-6′-(hydroxymethyl)-3′,4′,5′,6′-tetrahydro-3H-spiro[isobenzofuran-1,2′-pyran]-3′,4′,5′-triol]: the values for the IC50 against human SGLT1, on human SGLT2 (read-out: IC50 SGLT2) and on human SGLT2 (read-out: SGLT2 IC50) were 1 to 10 µM, < 1 µM and 0.0051 µM, respectively.
For `CCOc1ccc(Cc2ccc3c(c2)[C@]2(OC3)O[C@H](CO)[C@@H](O)[C@H](O)[C@H]2O)cc1` [Compound G, (1S,3′R,4′S,5′S,6′R)-6-(4-ethoxybenzyl)-6′-(hydroxymethyl)-3′,4′,5′,6′-tetrahydro-3H-spiro[isobenzofuran-1,2′-pyran]-3′,4′,5′-triol] the same measures were > 10 µM, < 1 µM and 0.071 µM.
As for `CCc1ccc(Cc2cc3c(cc2Cl)C(OC)C[C@]32O[C@H](CO)[C@@H](O)[C@H](O)[C@H]2O)cc1` (stereo partly drawn) [Compound BD, (1S,3′R,4′S,5′S,6′R)-5-chloro-6-(4-ethylbenzyl)-6′-(hydroxymethyl)-3-methoxy-2,3,3′,4′,5′,6′-hexahydrospiro[indene-1,2′-pyran]-3′,4′,5′-triol], the IC50 is > 10 µM against human SGLT1 and < 1 µM at human SGLT2 (read-out: IC50 SGLT2).
With `CCc1ccc(Cc2cc3c(cc2Cl)CO[C@]32O[C@H](COC(C)=O)[C@@H](O)[C@H](O)[C@H]2O)cc1` [Compound AH, ((1S,3′R,4′S,5′S,6′R)-5-chloro-6-(4-ethylbenzyl)-3′,4′,5′-trihydroxy-3′,4′,5′,6′-tetrahydro-3H-spiro[isobenzofuran-1,2′-pyran]-6′-yl)methyl acetate], the IC50 against human SGLT1 was 1 to 10 µM; at human SGLT2 (read-out: IC50 SGLT2) it was < 1 µM.
As to `CCc1ccc(Cc2cc3c(cc2Cl)CO[C@]32O[C@H](CO)[C@@H](O)[C@H](O)[C@H]2O)cc1` [Compound K, (1S,3′R,4′S,5′S,6′R)-5-chloro-6-(4-ethylbenzyl)-6′-(hydroxymethyl)-3′,4′,5′,6′-tetrahydro-3H-spiro[isobenzofuran-1,2′-pyran]-3′,4′,5′-triol], the IC50 against human SGLT1 and on human SGLT2 (read-out: IC50 SGLT2) was < 1 µM each time.
For the compound `CCc1ccc(Cc2cc3c(cc2Cl)CC[C@]32O[C@H](CO)[C@@H](O)[C@H](O)[C@H]2O)cc1` [Compound AV, (1S,3′R,4′S,5′S,6′R)-5-chloro-6-(4-ethylbenzyl)-6′-(hydroxymethyl)-2,3,3′,4′,5′,6′-hexahydrospiro[indene-1,2′-pyran]-3′,4′,5′-triol], the IC50 against human SGLT1 was 1 to 10 µM; on human SGLT2 (read-out: IC50 SGLT2), < 1 µM.
The matching figures for `CCc1ccc(Cc2cc3c(cc2Cl)C(O)C[C@]32O[C@H](CO)[C@@H](O)[C@H](O)[C@H]2O)cc1` (stereo partly drawn) [Compound BB, (1S,3′R,4′S,5′S,6′R)-5-chloro-6-(4-ethylbenzyl)-6′-(hydroxymethyl)-2,3,3′,4′,5′,6′-hexahydrospiro[indene-1,2′-pyran]-3,3′,4′,5′-tetraol]: > 10 µM and < 1 µM.
The matching figures for `CCc1ccc(Cc2cc3c(cc2Cl)CO[C@]32O[C@H](COCC(F)(F)F)[C@@H](O)[C@H](O)[C@H]2O)cc1` [Compound AI, (1S,3′R,4′S,5′S,6′R)-5-chloro-6-(4-ethylbenzyl)-6′-((2,2,2-trifluoroethoxy)methyl)-3′,4′,5′,6′-tetrahydro-3H-spiro[isobenzofuran-1,2′-pyran]-3′,4′,5′-triol]: > 10 µM and < 1 µM.
In the case of `OC[C@H]1O[C@]2(CCc3cc(Cl)c(Cc4ccc(O[C@H]5CCOC5)cc4)cc32)[C@H](O)[C@@H](O)[C@@H]1O` [Compound BG, (1S,3′R,4′S,5′S,6′R)-5-chloro-6′-(hydroxymethyl)-6-(4-((S)-tetrahydrofuran-3-yloxy)benzyl)-2,3,3′,4′,5′,6′-hexahydrospiro[indene-1,2′-pyran]-3′,4′,5′-triol], the IC50 against human SGLT1 is > 10 µM; on human SGLT2 (read-out: IC50 SGLT2), < 1 µM.
The matching figures for `CCc1ccc(C(=O)c2cc3c(cc2Cl)CO[C@]32O[C@H](CO)[C@@H](O)[C@H](O)[C@H]2O)cc1` [Compound AQ, ((1S,3′R,4′S,5′S,6′R)-5-chloro-3′,4′,5′-trihydroxy-6′-(hydroxymethyl)-3′,4′,5′,6′-tetrahydro-3H-spiro[isobenzofuran-1,2′-pyran]-6-yl)(4-ethylphenyl)methanone]: > 10 µM and < 1 µM.
The matching figures for `CCc1ccc(Cc2cc3c(cc2Cl)C(CCO)C[C@]32O[C@H](CO)[C@@H](O)[C@H](O)[C@H]2O)cc1` (stereo partly drawn) [Compound BA, (1S,3′R,4′S,5′S,6′R)-5-chloro-6-(4-ethylbenzyl)-3-(2-hydroxyethyl)-6′-(hydroxymethyl)-2,3,3′,4′,5′,6′-hexahydrospiro[indene-1,2′-pyran]-3′,4′,5′-triol]: > 10 µM and < 1 µM.
The matching figures for `CCc1ccc(Cc2cc3c(cc2Cl)CO[C@]32O[C@H](COC)[C@@H](O)[C@H](O)[C@H]2O)cc1` [Compound AG, (1S,3′R,4′S,5′S,6′R)-5-chloro-6-(4-ethylbenzyl)-6′-(methoxymethyl)-3′,4′,5′,6′-tetrahydro-3H-spiro[isobenzofuran-1,2′-pyran]-3′,4′,5′-triol]: 1 to 10 µM and < 1 µM.
As to `CCc1ccc(Cc2cc3c(cc2Cl)CO[C@]32O[C@H](CNC(C)=O)[C@@H](O)[C@H](O)[C@H]2O)cc1` [Compound AM, N-(((1S,3′R,4′S,5′S,6′R)-5-chloro-6-(4-ethylbenzyl)-3′,4′,5′-trihydroxy-3′,4′,5′,6′-tetrahydro-3H-spiro[isobenzofuran-1,2′-pyran]-6′-yl)methyl)acetamide], the IC50 is 1 to 10 µM at human SGLT1 and < 1 µM at human SGLT2 (read-out: IC50 SGLT2).
The matching figures for `CCc1ccc(Cc2cc3c(cc2Cl)C(F)C[C@]32O[C@H](CO)[C@@H](O)[C@H](O)[C@H]2O)cc1` (stereo partly drawn) [Compound BE, (1S,3′R,4′S,5′S,6′R)-5-chloro-6-(4-ethylbenzyl)-3-fluoro-6′-(hydroxymethyl)-2,3,3′,4′,5′,6′-hexahydrospiro[indene-1,2′-pyran]-3′,4′,5′-triol]: > 10 µM and < 1 µM.
